The values that follow come from a melting point compilation (Tetko et al.; mined from patent text by program, amines drawn as free bases though some values may be those of a salt).

`CCOC(=O)C1=C[C@@H](O)[C@H](NC(C)=O)[C@@H](NC(=O)OC(C)(C)C)C1` had a melting point of 177 to 178 °C.

The molecule `CC(C)(C)NS(=O)(=O)c1ccc(Cl)c(CBr)c1Cl` had a melting point of 157 °C. The molecule `COC(=O)CC1NC(=O)C(Cc2ccccc2)NC1=O` (stereo not given) displayed a melting point of 217 to 218 °C. The molecule `CCCCn1ccc2cc(-c3ccc(C(F)(F)F)cc3)ccc21` gave a melting point of 52 to 53 °C. The molecule `CC(C)n1nc(-c2c(-c3ccccc3)nc(N)nc2-n2cncn2)ccc1=O` had a melting point of 266 to 268 °C. The same measure for `N#CCc1cccc2c(-c3ccc(C(F)(F)F)cc3)nccc12`: 122 to 123 °C; for `CCCCCCCCCCOc1cc(OCCCCCCc2cccc(OCc3ccccc3)c2OCc2ccccc2)cc(C(=O)OC)c1`: 45 to 46 °C; for `CCOC(=O)N(O)Cc1cccc(Nc2ccccc2C(=O)OC)c1Cl`: 108 to 110 °C.

On to `C=CCC(CO)C(O)c1ccccc1` (stereo not given), for which the melting point was 41 to 43 °C. Turning to `COC1CC2(C)C(CCC3C4CCC(C(C)=O)C4(C)CC(=O)C32)CC1O` (stereo not given), the melting point fell in the range of 163 to 164 °C.

For the molecule `O=[N+]([O-])c1ccc(C(Cl)Cl)cc1`, the melting point was 44 to 46 °C. The molecule `CC1CCCCN1C(=O)C=Cc1ccc(F)cc1` (stereo not given) yielded a melting point of 114 to 116 °C. For `Cc1cccc(N2CC(=O)N(C)C(=O)N2)c1` the value was 173 to 175 °C; for `COc1cc(C2OCCO2)cc(I)c1O`, 120 to 121 °C. The molecule `Cc1cc(C(=O)N2CCOCC2)ncc1C(c1cc(F)ccc1F)S(=O)(=O)c1ccc(F)cc1` (stereo not given) had a melting point of 165 to 167 °C. In turn, `CC(C)(O)C(=O)N[C@H]1CC[C@H](CCN2CCN(c3nccc4c3CCO4)CC2)CC1` returned a melting point of 201 °C.

Turning to `COC(=O)CCn1nc(-c2c(-c3ccccc3)nn3ccccc23)ccc1=O`, the melting point is 133 to 134 °C. Turning to `c1ccc(N2CCN(c3nn(-c4ccccc4)c4ccccc34)CC2)cc1`, the melting point lay within 129 to 130 °C. For `COC(=O)C1=C(C)Nc2ccccc2SC1c1ccc(OC)cc1` (stereo not given) the value was 107 to 110 °C; for `CC(C)(C)OC(=O)N1[C@@H](CC2CCCCC2)[C@H](CC2SCCCS2)OC1(C)C`, 104 to 106 °C. The same measure for `CCN(CC)C(=O)n1cnc(S(=O)(=O)Cc2ccccc2)n1`: 87 to 88 °C; for `Nc1nc(NC2CCC2)c2ncn(C3C=CC(CO)C3)c2n1` (stereo not given): 181 to 183 °C; for `CC(=O)SCCCc1ccc(C2OCC(C)(C)CO2)cc1`: 44 °C.

Regarding `Cc1nc2c(O)c(CC[C@@H](O)c3ccc(F)cc3)c(C(=O)N(C)C)cc2n1C`, the melting point lay within 276 to 277 °C.

For the molecule `CCOc1cc(O)c2cc(C(C)=O)ccc2n1`, the melting point fell in the range of 210 to 219 °C. Molecule `CC(=O)NC[C@H]1CN(c2ccc(C(=O)c3cnc4ccc(Cl)nn34)cc2)C(=O)O1` had a melting point of 194 to 196 °C. The molecule `O=C1c2ccccc2C(c2ccc(Cl)cc2)(c2c(O)cc(O)cc2O)N1Cc1ccc([N+](=O)[O-])cc1` (stereo not given) registered a melting point of 196 to 198 °C. As for `CCOC(=O)c1cc2c(cn1)[nH]c1ccc([N+](=O)[O-])cc12`, the melting point is 320 to 325 °C. As to `N#CCC(=O)NCc1ccccc1Cl`, the melting point lay within 102 to 104 °C.

The molecule `N#Cc1cnc2cnc(F)cc2c1O` came in with a melting point of 214 to 215 °C. Molecule `CCCCCCCCCCCCCCCCCCS(=O)(=O)c1cc2ccccc2c(N)c1O` displayed a melting point of 84 to 88 °C. In the case of `CC1CC2C3CCC4=CC(=O)C=CC4(C)C3=CCC2(C)C1C(=O)CN1CCN(c2cc(NC34CC5CC(CC(C5)C3)C4)nc(NC34CC5CC(CC(C5)C3)C4)n2)CC1` (stereo not given), the melting point is 210 to 220 °C. Take `CC(=O)OC1CCC2(C)C(CCC3C4CC5OC6(CC(C)C(C)(C)O6)C(C)(O)C5C4(C)CC(O)C32)C1` (stereo not given): the melting point was 194 to 195 °C. As for `O=C1CC(Br)CCCCCCCCCN1` (stereo not given), the melting point fell in the range of 155 to 157 °C.

In the case of `O=C(Nc1ccc2cn[nH]c2c1)C(=O)N1CCC(Cc2ccccc2)CC1`, the melting point is 160 to 164 °C.
